Assay results taken from PMC4602143, “A combined bioinformatics and functional metagenomics approach to discovering lipolytic biocatalysts” (Frontiers in Microbiology, 2015).
Where two headings read alike, the source gives them in different places.

Test system: T1, PL-GOS
T1 construct: synthetic gene; N-terminal His6 with TEV site, tag cut by TEV protease; E. coli BL21(DE3) strain TMBL1503, pET-11a
Test: pNP release, OD405, Lineweaver-Burk
Type: biochemical, metagenome: ocean surface water (Global Ocean Sampling)
Conditions: 50 mM Tris-HCl pH 7.3, 20°C, 65 nM enzyme
Description: pNP release, OD405, Lineweaver-Burk on PL-GOS

| SMILES | Km (substrate above 20 μM (non-Michaelis-Menten below), read-out: pNP-palmitate) [µM] | Km (read-out: pNP-butyrate) [µM] |
| --- | --- | --- |
| CCCCCCCCCCCCCCCC(=O)Oc1ccc([N+](=O)[O-])cc1 [pNP-palmitate] | 68.1 | – |
| CCCC(=O)Oc1ccc([N+](=O)[O-])cc1 [pNP-butyrate] | – | 66.7 |
